This note sets out measurements from paper PMC10321483 (Chemical Science, 2023).

Test [1] deals with T1, BlaC (Mycobacterium tuberculosis, UniProt P9WKD3).
T1 construct: made in house; host or cells: E. coli
The test is described as follows: BlaC fluorogenic inhibition assay with FC5 (dose-response). It is filed as biochemical. The conditions noted are these: pIC50 BlaC, Table S5 HTS hits; 30 minute inhibitor pre-incubation; two independent repeats. Here is the method:
Two types of controls were used. […] In control 2, the BlaC mixture was substituted with the assay buffer. This mixture was incubated for 30 minutes at room temperature without shaking. […] Data were analysed using ActivityBase (IDBS).

Test [2] has as its target T2, LdtMt2 (Mycobacterium tuberculosis, UniProt I6Y9J2). In words: biochemical. The class given is binding. Also on record: made in house; host or cells: E. coli. The essentials:
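Thermal shift: 5 μM LdtMt2 preincubated 30 minutes at room temperature with 500 μM inhibitor in 50 mM tris pH 7.5, then SYPRO Orange (6×) added. Fluorescence (ex 492/em 610 nm) followed from 20 to 95 °C in 0.2 °C steps to derive Tm.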

For test [3], the target named is T2, LdtMt2. The test is described as follows: Jump dilution assay (reversibility, koff). It is filed as biochemical. Also on record: made in house; host or cells: E. coli. The conditions noted are these: read-out: koff (off rate of complex with LdtMt2). The procedure: LdtMt2 (10 μM final concentration) was incubated with the inhibitor (100 μM final concentration) in the assay buffer (50 mM HEPES, pH 7.2, 0.01% (v/v) Triton X-100) for 2 hours at room temperature, then serially diluted 1000× with assay buffer (final LdtMt2 concentration 10 nM). 20 μL of the diluted mixture was added to a black polystyrene, flat-bottomed 384-well μ-clear plate (clear bottomed, Greiner Bio-One, part number 781096). Probe 2 (final concentration 15 μM) was added using a MultiDrop Combi dispenser (ThermoFisher Scientific). Fluorescence was measured using a PHERAstar plate reader (BMG Labtech) with λex = 480 nm and λem = 520 nm. Readings were taken every 15 s for a period of 5 minutes, using bottom optic measurements. The off rate (koff) was determined using eqn (7).7 [drawing 3] where, P = formed product; Vs = velocity of no-inhibitor control; V0 = velocity of no-enzyme control, and P0 = initial fluorescence.
The half-life of the enzyme–inhibitor complex (t1/2) was calculated using eqn (8).8 [drawing 4]

The target in test [4] is T2, LdtMt2. In words: biochemical. The class given is biochemical. Also on record: made in house; host or cells: E. coli.
Test [5] in a line: Intrinsic thiol reactivity (kchem), competition with probe 2 for L-glutathione. The class given is physicochemical. As to conditions: Table S5; L-glutathione 500 nM, probe 2 10 µM, 15 h.

Molecules are shown by their SMILES. Like-named read-outs stand apart in the source and are kept apart here.

T2 sequence (I6Y9J2 56-408): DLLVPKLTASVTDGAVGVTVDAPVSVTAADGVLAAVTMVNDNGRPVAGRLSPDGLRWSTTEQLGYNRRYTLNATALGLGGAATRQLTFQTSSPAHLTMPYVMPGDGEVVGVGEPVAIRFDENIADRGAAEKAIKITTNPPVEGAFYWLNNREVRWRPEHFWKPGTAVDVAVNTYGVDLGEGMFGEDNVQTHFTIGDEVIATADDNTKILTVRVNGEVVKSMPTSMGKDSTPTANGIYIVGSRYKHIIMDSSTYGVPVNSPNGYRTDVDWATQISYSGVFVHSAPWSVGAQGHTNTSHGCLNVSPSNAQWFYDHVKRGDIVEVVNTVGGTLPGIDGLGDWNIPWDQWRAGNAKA
T1 sequence (P9WKD3 35-307): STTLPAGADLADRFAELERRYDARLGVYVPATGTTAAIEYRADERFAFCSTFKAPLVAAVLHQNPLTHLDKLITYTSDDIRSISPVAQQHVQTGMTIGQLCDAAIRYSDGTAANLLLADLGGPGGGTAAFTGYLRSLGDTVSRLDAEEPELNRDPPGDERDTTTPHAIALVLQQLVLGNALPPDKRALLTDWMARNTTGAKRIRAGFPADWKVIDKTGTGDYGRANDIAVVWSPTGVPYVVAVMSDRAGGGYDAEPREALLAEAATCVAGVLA

As to `CCOc1ccc(CN2C(=O)C(=O)c3cc(Br)cc(C)c32)cc1OC` [Compound 16], the IC50 in test [1] was 36.3 µM; in test [4] (Table S5 HTS hits, 30 minute inhibitor pre-incubation, two independent repeats, read-out: pIC50 LdtMt2 (converted)) it was 0.178 µM; in test [4] (Table S8, inhibitor pre-incubation time 0 min, read-out: pIC50, 0 min (converted)) it was 0.302 µM; in test [4] (Table S8, inhibitor pre-incubation time 120 min, read-out: pIC50, 120 min (converted)), 0.407 µM; in test [4] (pIC50, 10 min, Table S8, inhibitor pre-incubation time 10 min), 0.363 µM; in test [4] (pIC50, 60 min, Table S8, inhibitor pre-incubation time 60 min), 0.372 µM. Moreover, in test [2] (5 µM LdtMt2, 500 µM inhibitor, SYPRO Orange, 50 mM Tris pH 7.5), the “Tm: melting point of LdtMt2 after pre-incubation with the compound” value worked out at 46.8 ± 0.00 °C. Also, the ΔTm (commonly the shift of the melting midpoint relative to a reference) at 500 µM in test [2] (read-out: ΔTm: difference in melting point of LdtMt2 relative to unreacted LdtMt2 (43.8 °C)) was found to be 3 °C. In addition, the koff (commonly the rate constant with which the complex falls apart) in test [3] was 0.0286 s⁻¹. Also, the “LE (ligand efficiency)” value in test [4] (Table S5, for LdtMt2) stood at 0.45. Further, the “kchem (apparent intrinsic thiol reactivity)” value in test [5] was < 0.08 M⁻¹ s⁻¹.
